Measurements as given in US11510913B1, “Modulating expression level of a gene encoding an apurinic/apyrimidinic endodeoxyribonuclease protein by treating a human subject with a nitroxide” (priority 2021, dated 2022).

How the values were obtained:
APEX1 [1] = experiment: Treating human subjects with Tempol, serum level of APEX1 following treatment; format: in vivo; details: 2000 mg per day for 180 days
Experimental: (§1) A 70-kilogram human subject over the age of 65 is identified as having, or known to have, or suspected of having an increased expression level of APEX1. The human subject is administered a dose of 2000 mg of Tempol (or another nitroxide antioxidant) per day for 180 days. This may be administered in a single dose, or may be administered as a number of smaller doses over a 24-hour period: for example, four 500-mg doses at […]. Following treatment, the serum level of APEX1, is decreased.
as §1, with “subject” for “subject over the age of 65”
as §1, with “65 and having a cardiovascular disease” for “65”, “for an increased expression level of APEX1. Or a 70-kilogram human subject over the age of 65 is” for “as having, or”, “have a cardiovascular disease and/or” for “have, or suspected of having an”
as §1, with “at risk” for “over the age”, “developing colorectal cancer” for “65”, “for increased expression level of APEX1. Or a 70-kilogram human subject is” for “as having, or”, “be at risk” for “have, or suspected”, “developing colorectal cancer and/or have” for “having an”
(§2) A 70-kilogram human subject at risk of developing an autoimmune disease (e.g., rheumatoid arthritis) is identified for increased expression level of APEX1. Or a 70-kilogram human subject is known to be at risk of developing an autoimmune disease and/or have increased expression level of APEX1. The human subject is administered a dose of 2000 mg of Tempol (or another nitroxide antioxidant) per day for 180 days. This may be administered in a single dose, or may be administered as a number of smaller doses over a 24-hour period: for example, four 500-mg doses at […]. Following treatment, the serum level of APEX1, is decreased.
as §1, with “The” for “A 70-kilogram human subject over the age of 65 is identified as having, or known to have, or suspected of having an increased expression level of APEX1. The”
as §2, with “a neurodegenerative” for “an autoimmune”, “Parkinson's Disease)” for “rheumatoid arthritis)”, “decreased. […]” for “decreased.”

APEX1 [2] = experiment: Effects of Tempol on gene expression in cardiac tissue of mice, chip-based microarray; format: in vivo
Experimental: To assess the effects of Tempol on gene expression, Tempol was administered to experimental mice at a dose of 5 mg/g of food from 14 months to 31 months after birth. Mice receiving the same food without the addition of Tempol were used as a negative control. At the age of 31 months, the experimental animals were sacrificed and the hearts were surgically removed. The expression of a broad spectrum of genes in the cardiac tissue was assessed using chip-based microarray technology. Such chips are well known in the art and are widely used to assess gene expression.

SMILES: CC1(C)CC(O)CC(C)(C)N1[O] [Tempol, 4-hydroxy-2,2,6,6-tetramethylpiperidine-1-oxyl]
- serum level of APEX1 (APEX1 [1]; Example 2: 70-kilogram human subject over the age of 65 with increased expression level of APEX1): decreased
- serum level of APEX1 (APEX1 [1]; Example 3: 70-kilogram human subject with increased expression level of APEX1): decreased
- serum level of APEX1 (APEX1 [1]; Example 4: human subject over the age of 65 having a cardiovascular disease): decreased
- serum level of APEX1 (APEX1 [1]; Example 5: human subject at risk of developing colorectal cancer): decreased
- serum level of APEX1 (APEX1 [1]; Example 6: human subject at risk of developing an autoimmune disease (e.g., rheumatoid arthritis)): decreased
- serum level of APEX1 (APEX1 [1]; Example 7: human subject at risk of developing a condition due to aging): decreased
- serum level of APEX1 (APEX1 [1]; Example 8: human subject at risk of developing a neurodegenerative disease (e.g., Parkinson's Disease)): decreased
- serum level of APEX1 (APEX1 [1]; Example 9: human subject having an infection (e.g., bacterial, fungal, or viral)): decreased
- Fold change (APEX1 expression) (APEX1 [2]; Tempol 5 mg/g of food from 14 months to 31 months after birth, cardiac tissue at 31 months, vs mice on same food without Tempol): −1.23
- expression of APEX1 in the cardiac tissue (APEX1 [2]; Tempol 5 mg/g of food from 14 to 31 months after birth, microarray): statistically significant decrease in expression
